Results taken from paper PMC4161152 (Journal of Medicinal Chemistry, 2014).

How the values were obtained:
Format in all cases: cell-based
MCF7_MCT4 cells = experiment: MCF7_MCT4 MTT assay; settings: Homo sapiens, 96 h, read-out: growth inhibition EC50, MCF7_MCT4 cells
human MCT4 = target: T1, human MCT4 (Homo sapiens, UniProt O15427); experiment: 14C lactate uptake in MCF7_MCT4 cells; settings: increased uptake versus parental MCF7 cells
T1 sequence (O15427 1-465): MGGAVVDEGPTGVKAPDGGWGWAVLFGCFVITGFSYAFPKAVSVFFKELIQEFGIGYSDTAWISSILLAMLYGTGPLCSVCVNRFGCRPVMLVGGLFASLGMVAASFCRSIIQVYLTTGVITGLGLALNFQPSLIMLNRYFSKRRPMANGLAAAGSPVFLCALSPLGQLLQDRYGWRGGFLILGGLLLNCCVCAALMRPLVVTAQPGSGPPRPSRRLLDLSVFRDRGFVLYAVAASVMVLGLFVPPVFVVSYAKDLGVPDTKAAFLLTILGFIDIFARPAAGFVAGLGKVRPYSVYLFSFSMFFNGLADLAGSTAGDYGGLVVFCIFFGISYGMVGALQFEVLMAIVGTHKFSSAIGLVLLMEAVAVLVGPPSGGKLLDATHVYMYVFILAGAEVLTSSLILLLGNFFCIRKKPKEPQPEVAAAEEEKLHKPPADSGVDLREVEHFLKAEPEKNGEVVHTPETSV

[1] = system: human Raji lymphoma cells; experiment: Raji lymphoma cell MTT assay
MCT1 = target: T2, MCT1 (Mus musculus, UniProt P53986); experiment: MCF7_MCT1 14C-lactate transport assay; settings: IC50 (nM) lactate transport, labeled (14C) lactate transport, MCF7 breast cancer cells engineered to overexpress MCT1, 10 min on ice
T2 sequence (P53986 1-493): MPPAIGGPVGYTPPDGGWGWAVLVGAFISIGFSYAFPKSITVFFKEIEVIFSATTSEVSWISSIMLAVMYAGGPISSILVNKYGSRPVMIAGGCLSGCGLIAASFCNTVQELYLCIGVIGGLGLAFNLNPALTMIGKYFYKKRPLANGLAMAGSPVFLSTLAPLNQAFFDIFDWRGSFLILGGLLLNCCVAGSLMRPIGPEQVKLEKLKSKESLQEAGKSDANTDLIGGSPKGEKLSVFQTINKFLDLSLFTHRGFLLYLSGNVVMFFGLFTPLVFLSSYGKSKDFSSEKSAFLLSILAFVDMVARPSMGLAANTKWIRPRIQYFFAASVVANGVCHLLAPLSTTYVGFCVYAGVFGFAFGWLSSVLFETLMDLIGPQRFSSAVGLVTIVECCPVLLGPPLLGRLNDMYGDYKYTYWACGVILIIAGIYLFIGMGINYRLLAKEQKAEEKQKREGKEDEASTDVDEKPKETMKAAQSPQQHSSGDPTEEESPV

IC50 (MCT1)	Structure (SMILES)	activity in Raji lymphoma cell proliferation assay (in words) [1]	further results
858 nM	CC(C)Cn1c(=O)n(C)c(=O)c2nc(SCCCO)c(Cc3cccc4ccccc34)nc21 [Compound 15b]	–	–
> 2000 nM	CC(C)Cn1c(=O)n(C)c(=O)c2nc(CCCCO)c(Cc3cccc4ccccc34)nc21 [Compound 23a]	–	–
192 nM	CC(C)Cn1c(=O)n(C)c(=O)c2nc(CCCCCO)c(Cc3cccc4ccccc34)nc21 [Compound 23b]	–	fold higher EC50 than clinical compound 2 [1]: 2–4 fold

Continued, compound first:

Structure (SMILES)	IC50 (MCT1)	activity in Raji lymphoma cell proliferation assay (in words) [1]	further results
CC(C)Cc1nn(C)c(=O)c2c(SCCCO)n(Cc3cccc4ccccc34)cc12 [Compound 1, reference compound]	–	–	EC50 (MCF7_MCT4 cells): > 10000 nM; effect on 14C lactate uptake in MCF7_MCT4 cells (in words) (human MCT4): not inhibited
CC(C)Cn1c(=O)n(C)c(=O)c2[nH]c(=O)c(Cc3cccc4ccccc34)nc21 [Compound 12]	–	inactive	–
CC(C)Cn1c(=O)n(C)c(=O)c2c1nc(Cc1cccc3ccccc13)c(=O)n2CCCCO [Compound 14b]	548 nM	–	–
CC(C)Cn1c(=O)n(C)c(=O)c2c1nc(Cc1cccc3ccccc13)c(=O)n2CCCCCCO [Compound 14d]	–	inactive	–
CC(C)Cn1c(=O)n(C)c(=O)c2nc(SCCCCO)c(Cc3cccc4ccccc34)nc21 [Compound 15c]	–	–	fold higher EC50 than clinical compound 2 [1]: 2–4 fold
CC(C)Cn1c(=O)n(C)c(=O)c2nc(/C=C\CCCO)c(Cc3cccc4ccccc34)nc21 [Compound 27]	116 nM	–	fold higher EC50 than clinical compound 2 [1]: 2–4 fold
COCCCCCc1nc2c(=O)n(C)c(=O)n(CC(C)C)c2nc1Cc1cccc2ccccc12 [Compound 28]	–	largely inactive	–
Cc1n[nH]c(C)c1Cc1nc2c(nc1CCCCCO)c(=O)n(C)c(=O)n2CC(C)C [Compound 31]	–	inactive	–
